Publication PMC5590106 (Biochemical and biophysical research communications, 2017)

Columns and labels:
Format in all cases: biochemical
[1] = target: T1, purified C. elegans CED-3 (Caenorhabditis elegans, UniProt P42573); assay: CED-3 fluorogenic assay; details: for Purified CED-3 Hill Slope Value: determined by XLfit in ActivityBase
T1 sequence (P42573 221-374 limits assumed): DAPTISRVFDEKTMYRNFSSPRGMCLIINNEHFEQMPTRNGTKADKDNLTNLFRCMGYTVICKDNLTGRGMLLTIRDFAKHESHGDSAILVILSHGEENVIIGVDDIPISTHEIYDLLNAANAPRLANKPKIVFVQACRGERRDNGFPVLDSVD
T1 sequence (P42573 389-503 limits assumed): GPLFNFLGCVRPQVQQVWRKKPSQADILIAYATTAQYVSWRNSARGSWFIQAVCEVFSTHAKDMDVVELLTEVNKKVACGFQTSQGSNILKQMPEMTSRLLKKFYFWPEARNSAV

[2] = target: T2, C. elegans CED-3 (crude lysate, CED-3L) (Caenorhabditis elegans, UniProt P42573); assay: CED-3 fluorogenic assay
T2 sequence (P42573 221-374 limits assumed): T1 sequence (P42573 221-374 limits assumed)
T2 sequence (P42573 389-503 limits assumed): T1 sequence (P42573 389-503 limits assumed)

[3] = target: T3, Human Caspase 3 (HCASP3) (Homo sapiens, UniProt P42574); assay: Human caspase-3 fluorogenic assay
T3 sequence (P42574 29-175 limits assumed): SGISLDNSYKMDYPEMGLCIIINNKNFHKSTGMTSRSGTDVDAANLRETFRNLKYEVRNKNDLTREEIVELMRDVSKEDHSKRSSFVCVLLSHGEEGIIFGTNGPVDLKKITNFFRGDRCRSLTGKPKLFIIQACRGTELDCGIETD
T3 sequence (P42574 176-277 limits assumed): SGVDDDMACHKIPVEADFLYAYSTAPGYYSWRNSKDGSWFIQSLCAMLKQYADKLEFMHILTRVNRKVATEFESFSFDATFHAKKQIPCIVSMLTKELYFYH

SMILES	Purified CED-3 Hill Slope Value [1]	IC50 [2]	IC50 [1]	also measured
O=C1NC(=S)N(c2ccc(F)cc2)C(=O)/C1=C/c1ccco1 [BAS 01202237]	1.5			
CCCOC(=O)/C(=C\C=C\c1ccco1)NC(=O)c1ccccc1 [BAS 00187854]	1.27	34.7 µM	14.6 µM	
O=c1cc2oc3cc(O)c(O)cc3c(-c3ccccn3)c-2cc1O [BAS 05223612]	1.7	24.5 µM	3.9 µM	inhibition of HCASP3 (in words) ([3]; dose-response, at the concentrations tested): inhibited; inhibition of CED-3 (in words) [1]: inhibited
Nc1ccc(N2Cc3ccccc3C2)cc1 [BAS 01988614]	0.62	43.1 µM	13.6 µM	
COc1ccc(N2C(=O)/C(=C/c3ccco3)C(=O)NC2=S)cc1 [BAS 00519146]	1.6			IC50 ([3]; read-out: IC50 HCASP-3, purified HCASP3, Fig. 3C): 10.8 µM
O=C(/C=C/c1ccccc1)NNC1=NS(=O)(=O)c2ccccc21 [BAS01847186]				potency on HCASP3 compared to CED-3 [3]: as potent or more so on HCASP3
O=C(/C=C/c1ccco1)c1ccc(NC(=O)c2cccs2)cc1 [BAS 00835000]	1.38	30 µM	4.9 µM	
CC(=O)N[C@@H](CC(=O)O)C(=O)N[C@@H](CCC(=O)O)C(=O)N[C@H](C(=O)N[C@H](C=O)CC(=O)O)C(C)C [Ac-DEVD-CHO, reference compound]		0.0019 µM	0.0027 µM	calculated Hill slope on CED-3L ([2]; crude lysate, Fig. 1A): −0.994
CC(=O)c1ccc(-c2ccc(/C=C3/SC(=S)NC3=O)o2)cc1 [BAS 00253468]	1.79	21 µM	9 µM	
